The target of one experiment is T1, human TLR7 (Homo sapiens, UniProt Q9NYK1).
T1 construct: expresses full-length human TLR7 and secretory alkaline phosphatase (SEAP) reporter gene; host or cells: TLR7/NF-κB/SEAPorter HEK293 cell line
T1 sequence (Q9NYK1 27-1049): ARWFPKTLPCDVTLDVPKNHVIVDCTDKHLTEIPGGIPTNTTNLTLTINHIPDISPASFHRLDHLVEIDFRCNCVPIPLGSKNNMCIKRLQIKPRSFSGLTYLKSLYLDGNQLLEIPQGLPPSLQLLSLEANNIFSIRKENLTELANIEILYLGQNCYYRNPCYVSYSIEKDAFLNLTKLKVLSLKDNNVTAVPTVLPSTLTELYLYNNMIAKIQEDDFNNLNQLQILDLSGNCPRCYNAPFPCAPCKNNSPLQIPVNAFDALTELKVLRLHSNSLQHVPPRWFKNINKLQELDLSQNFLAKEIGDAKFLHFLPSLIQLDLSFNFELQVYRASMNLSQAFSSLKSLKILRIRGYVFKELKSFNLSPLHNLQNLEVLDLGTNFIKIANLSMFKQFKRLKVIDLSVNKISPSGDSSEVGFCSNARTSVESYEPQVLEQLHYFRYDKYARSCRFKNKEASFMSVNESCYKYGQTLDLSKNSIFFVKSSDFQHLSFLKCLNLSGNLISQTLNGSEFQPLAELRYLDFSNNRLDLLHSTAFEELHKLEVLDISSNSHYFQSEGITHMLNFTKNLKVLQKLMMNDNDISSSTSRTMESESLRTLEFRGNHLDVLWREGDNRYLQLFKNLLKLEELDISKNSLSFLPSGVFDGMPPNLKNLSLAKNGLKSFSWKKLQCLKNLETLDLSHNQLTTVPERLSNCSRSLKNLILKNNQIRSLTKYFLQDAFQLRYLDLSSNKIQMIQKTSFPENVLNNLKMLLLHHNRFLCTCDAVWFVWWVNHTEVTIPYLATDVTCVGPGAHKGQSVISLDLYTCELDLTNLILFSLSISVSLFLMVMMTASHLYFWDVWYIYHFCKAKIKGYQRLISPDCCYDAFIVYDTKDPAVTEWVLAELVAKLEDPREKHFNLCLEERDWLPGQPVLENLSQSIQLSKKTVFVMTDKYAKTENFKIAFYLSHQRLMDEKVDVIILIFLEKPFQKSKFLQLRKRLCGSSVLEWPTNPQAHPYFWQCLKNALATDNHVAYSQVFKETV
The experiment can be described thus: Human TLR7 reporter gene assay (Test 1). The class given is cell-based. The following applies: half-maximal SEAP induction, TLR7/NF-κB/SEAPorter HEK293 cell line, overnight 37° C., 0.1% DMSO. The source says: TLR7/NF-κB/SEAPorter™ HEK293 cell line (Imgenex Corporation) is a stably co-transfected cell line which expresses full-length human TLR7 and secretory alkaline phosphatase (SEAP) reporter gene under the transcriptional regulation of an NF-κB response element. The TLR7 expression of the cell line has been already tested by flow cytometry. Transfectants with stable expression were selected using the antibiotic blasticidin and Geneticin. TLR signaling leads to the translocation of NF-κB and the activation of the promoter results in expression of the SEAP gene. TLR7-specific activation was assessed by determining the level of SEAP produced following overnight incubation of the cells at 37° C. with each compound prepared in Examples and Reference examples in the presence of 0.1% (v/v) dimethylsulfoxide (DMSO). The human TLR7 activity for the present compound was assessed by human TLR7 reporter gene assay, and the results are shown in Tables 6 and 7 as the compound concentration which produced half of the maximal level of SEAP induction (EC50).
Background: A reporter such as luciferase makes a cellular process visible.

Another experiment addresses T2, mouse TLR7 (Mus musculus, UniProt P58681).
T2 construct: expresses full-length mouse TLR7 and secretory SEAP reporter gene; host or cells: HEK-Blue mTLR7 cell line
T2 sequence (P58681 27-1050): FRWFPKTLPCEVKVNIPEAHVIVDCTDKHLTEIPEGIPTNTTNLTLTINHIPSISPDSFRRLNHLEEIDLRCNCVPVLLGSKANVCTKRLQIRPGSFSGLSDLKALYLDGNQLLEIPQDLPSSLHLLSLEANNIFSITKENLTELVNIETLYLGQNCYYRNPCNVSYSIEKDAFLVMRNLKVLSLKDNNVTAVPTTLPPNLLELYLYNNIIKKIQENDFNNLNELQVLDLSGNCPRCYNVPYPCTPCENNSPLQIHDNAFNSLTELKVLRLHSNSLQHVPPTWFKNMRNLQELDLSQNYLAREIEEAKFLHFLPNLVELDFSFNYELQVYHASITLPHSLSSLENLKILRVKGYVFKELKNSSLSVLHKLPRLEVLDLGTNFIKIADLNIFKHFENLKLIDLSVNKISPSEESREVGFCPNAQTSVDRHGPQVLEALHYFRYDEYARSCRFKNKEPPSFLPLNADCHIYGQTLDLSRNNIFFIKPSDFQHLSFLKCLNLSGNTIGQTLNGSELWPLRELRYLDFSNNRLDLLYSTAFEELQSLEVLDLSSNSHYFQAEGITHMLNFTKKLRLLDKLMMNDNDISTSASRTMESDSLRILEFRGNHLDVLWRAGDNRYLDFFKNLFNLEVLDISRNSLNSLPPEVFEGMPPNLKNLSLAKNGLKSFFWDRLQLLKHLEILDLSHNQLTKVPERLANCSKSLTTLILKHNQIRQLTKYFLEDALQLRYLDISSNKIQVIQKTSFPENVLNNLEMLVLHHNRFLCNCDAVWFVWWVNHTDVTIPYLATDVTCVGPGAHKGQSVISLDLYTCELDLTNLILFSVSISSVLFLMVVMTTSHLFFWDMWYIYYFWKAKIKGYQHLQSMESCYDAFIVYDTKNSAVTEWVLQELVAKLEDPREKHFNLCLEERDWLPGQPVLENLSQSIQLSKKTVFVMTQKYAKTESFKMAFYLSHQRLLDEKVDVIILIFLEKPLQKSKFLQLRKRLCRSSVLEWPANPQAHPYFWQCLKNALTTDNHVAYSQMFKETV
The experiment can be described thus: Mouse TLR7 reporter gene assay (Test 2). It is filed as cell-based. Particulars: half-maximal SEAP induction, HEK-Blue mTLR7 cell line, overnight 37° C., 0.1% DMSO. The text has this: HEK-Blue™ mTLR7 cell line (Invivogen) is a stably co-transfected cell line which expresses full-length mouse TLR7 and secretory SEAP reporter gene under the transcriptional regulation of an NF-κB response element. The TLR7 expression of the cell line has been already tested by RT-PCR. Transfectants with stable expression were selected using the antibiotic blasticidin and Zeocin. TLR signaling leads to the translocation of NF-κB and the activation of the promoter results in expression of the SEAP gene. TLR7-specific activation was assessed by determining the level of SEAP produced following overnight incubation of the cells at 37° C. with each compound prepared in Examples and Reference examples in the presence of 0.1% (v/v) DMSO. The mouse TLR7 activity for the present compound was assessed by mouse TLR7 reporter gene assay, and the results are shown in Tables 8 and 9 as the compound concentration which produced half of the maximal level of SEAP induction (EC50).

Take `CCCCOc1nc(N)c2[nH]c(=O)n(Cc3ccc(CN(C)CCOCCOCCOCCOCCO)nc3)c2n1` [Example 2, 6-amino-2-butoxy-9-{[6-(16-hydroxy-2-methyl-5,8,11,14-tetraoxa-2-azahexadecan-1-yl)pyridin-3-yl]methyl}-7,9-dihydro-8H-purin-8-one-trifluoroacetate]: the EC50 was determined as 774 nM at human TLR7 (Table 6, Examples) and 510 nM on mouse TLR7 (Table 8, Examples).
As for `CCCCOc1nc(N)c2[nH]c(=O)n(Cc3ccc(CN(C)CCOCCOCCOCCOCCO)cc3)c2n1` [Example 3, 6-amino-2-butoxy-9-{[4-(16-hydroxy-2-methyl-5,8,11,14-tetraoxa-2-azahexadecan-1-yl)phenyl]methyl}-7,9-dihydro-8H-purin-8-one], the EC50 stood at 24 nM on human TLR7 (Table 6, Examples) and 42 nM on mouse TLR7 (Table 8, Examples).
For `CCCCOc1nc(N)c2[nH]c(=O)n(Cc3ccc(CNC)nc3)c2n1` [Reference example 12, reference compound], the EC50 on human TLR7 (Table 7, Reference examples) came out at 578 nM; on mouse TLR7 (Table 9, Reference examples), 251 nM.
Take `CCCCOc1nc(N)c2[nH]c(=O)n(Cc3ccc(CNC)cc3)c2n1` [Reference example 14, reference compound]: the EC50 on human TLR7 (Table 7, Reference examples) is 12 nM; on mouse TLR7 (Table 9, Reference examples), 23 nM.

What is called EC50 is the concentration giving half of the maximal effect. A lower EC50 goes with a more potent agent.
